# According to patent publication US20070092467A1, “Oxyacetamide compounds useful for stimulating or inducing the growth and/or retarding the loss of keratin fibers” (L'OREAL, priority 2004, published 2007):
# Biological target: T1, type-1 15-PGDH (Homo sapiens, UniProt P15428)
# T1 construct: made in house
# T1 sequence (P15428 1-266): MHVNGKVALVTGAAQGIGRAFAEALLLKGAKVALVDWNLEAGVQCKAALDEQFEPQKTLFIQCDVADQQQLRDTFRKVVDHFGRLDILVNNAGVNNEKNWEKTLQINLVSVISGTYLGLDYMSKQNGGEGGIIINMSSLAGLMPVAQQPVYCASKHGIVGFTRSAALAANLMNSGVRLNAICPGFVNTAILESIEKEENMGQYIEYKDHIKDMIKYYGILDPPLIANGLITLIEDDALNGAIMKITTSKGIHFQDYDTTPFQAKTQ
# Assay: Test on type-1 15-PGDH (spectrophotometric, 340 nm, maximum reaction rate)
# Type: biochemical
# Conditions: IC50dh; 37° C., pH 7.4; read-out: Inhibition of 15-PGDH IC50
# Method: 1) Test on type-1 15-PGDH:
# (§1) For the purposes of the test, this suspension is thawed and stored in ice.
# (§2) 0.965 ml of this buffer (brought to 37° C. beforehand) is introduced into the cuvette of a spectrophotometer (Perkin-Elmer, Lambda 2) thermostatically maintained at 37° C., the measuring wavelength of which is set at 340 nm. 0.035 ml of enzymatic suspension at 37° C. is introduced into the cuvette concomitantly with the recording (corresponding to an increase in the optical density at 340 nm). The maximum reaction rate is recorded.
row,SMILES,IC50
1,O=C(COc1cccc(Cl)c1)NCc1ccco1 [Compound 23],16 µM

# Same assay, conditions: compound at 50 μM
row,SMILES,inhibition at 50 µM
1,O=C(COC1CCCCC1)NCc1ccccc1 [Compound 21],63%
2,CCCCCCOCC(=O)NCc1ccccc1 [Compound 22],47%
3,O=C(COc1cccc(Cl)c1)NCc1ccco1 [Compound 23],80%
4,O=C(COc1ccccc1)NCc1ccccc1 [Compound 24],55%
5,O=C(COc1cccc(Cl)c1)NCc1ccccc1 [Compound 25],50%
6,O=C(COc1ccc(Cl)cc1)NCc1ccccc1 [Compound 26],30%

# Same assay, conditions: compound at 100 μM; 37° C., pH 7.4, PGE2 50 μM, β-NAD 1.5 mM
row,SMILES,inhibition at 100 µM
1,"O=C(COCc1ccccc1)NC[C@@H]1CCCO1 (stereo in doubt) [Compound 14, 2-benzyloxy-N-(tetrahydrofuran-2-ylmethyl)acetamide]",50%
2,"Cc1cccc(C)c1NC(=O)COc1cccc2cccnc12 [Compound 1, N-(2,6-dimethylphenyl)-2-(quinolin-8-yloxy)acetamide]",49%
3,O=C(COc1cccc2cccnc12)Nc1ccccc1Cl [Compound 2],115%
4,"O=C(COc1cccc2cccnc12)Nc1ccccc1C(F)(F)F [Compound 3, 2-(quinolin-8-yloxy)-N-(2-trifluoromethylphenyl)acetamide]",128%
5,"CCOC(=O)c1ccc(NC(=O)COc2ccc(C(C)=O)cc2)cc1 [Compound 4, 4-[2-(4-Acetylphenoxy)acetylamino]benzoic acid ethyl]",49%
6,"Cc1nc2cc(OCC(=O)Nc3ccc(OC(F)(F)F)cc3)ccc2s1 [Compound 5, 2-(2-Methyl-benzothiazol-5-yloxy)-N-(4-trifluoromethoxy-phenyl) acetamide]",53%
7,"O=C(COc1ccc(-n2ccnc2)cc1)Nc1ccccc1Cl [Compound 6, N-(2-Chloro-phenyl)-2-(4-imidazol-1-yl-phenoxy)-acetamide]",54%
8,"O=C(COc1ccc2c(c1)C(=O)c1ccccc1-2)Nc1cccc(C(F)(F)F)c1 [Compound 7, 2-(9-Oxo-9H-fluoren-2-yloxy)-N-(3-trifluoromethyl-phenyl) acetamide]",61%
9,"O=C(COc1ccc2c(c1)C(=O)c1ccccc1-2)Nc1ccc(C(F)(F)F)cc1 [Compound 8, 2-(9-Oxo-9H-fluoren-2-yloxy)-N-(4-trifluoromethyl-phenyl) acetamide]",65%
10,"CCCCCCc1ccc(NC(=O)COc2ccc3sc(C)nc3c2)cc1 [Compound 9, N-(4-Hexyl-phenyl)-2-(2-methyl-benzothiazol-5-yloxy) acetamide]",69%
11,O=C(COc1ccc(-n2cccc2)cc1)Nc1ccccc1C(F)(F)F [Compound 10],71%
12,"O=C(COc1ccc2oc3ccccc3c2c1)Nc1ccc(OC(F)(F)F)cc1 [Compound 11, 2-(Dibenzofuran-2-yloxy)-N-(4-trifluoromethoxy-phenyl) acetamide]",74%
13,"O=C(COc1ccc(-n2ccnc2)cc1)Nc1ccccc1C(F)(F)F [Compound 12, 2-(4-imidazol-1-yl-phenoxy)-N-(2-trifluoromethyl-phenyl) acetamide]",125%
14,"COc1cc(C(C)=O)ccc1OCC(=O)Nc1ccccc1C(F)(F)F [Compound 13, 2-(4-Acetyl-2-methoxy-phenoxy)-N-(2-trifluoromethyl-phenyl) acetamide]",126%
15,"Cc1ccc(CNC(=O)COCc2ccccc2)o1 [Compound 15, 2-Benzyloxy-N-(5-methyl-furan-2-ylmethyl)-acetamide]",51%
16,"O=C(COCc1ccccc1)NC1CCCC1 [Compound 16, 2-Benzyloxy-N-cyclopentylacetamide]",76%
17,"CC(C)(C)c1ccc(OCC(=O)NC[Si](C)(C)C)cc1 [Compound 17, 2-(4-tert-Butyl-phenoxy)-N-trimethylsilanylmethyl-acetamide]",50%
18,"C[Si](C)(C)CNC(=O)COCc1ccccc1 [Compound 18, 2-Benzyloxy-N-trimethylsilanylmethyl-acetamide]",88%
19,"C[Si](C)(C)CNC(=O)COc1ccccc1 [Compound 19, 2-Phenoxy-N-trimethylsilanylmethyl-acetamide]",95%
20,CSCCNC(=O)COc1ccccc1 [Compound 20],85%
21,O=C(COCc1ccccc1)NCc1ccccc1 [Compound 27],48%
22,N#Cc1ccc(-c2ccc(OCC(=O)Nc3cccc([N+](=O)[O-])c3)cc2)cc1 [Compound 28],54%
23,O=C(COc1ccccc1)NC[C@@H]1CCCO1 [Compound 29],54%
24,CCCCCCNC(=O)COc1ccccc1 [Compound 31],57%
25,CC(=O)c1ccc(OCC(=O)Nc2ccccc2C(F)(F)F)cc1 [Compound 32],59%
26,O=C(COc1ccccc1)NCc1ccccc1 [Compound 33],61%
27,O=C(COc1cccc2cccnc12)Nc1cccc([N+](=O)[O-])c1 [Compound 34],69%
28,O=C(COc1ccc(-c2ccccc2)cc1)Nc1ccccc1C(F)(F)F [Compound 35],70%

# Biological target: T2, PGF synthase (Homo sapiens, UniProt P42330)
# T2 construct: made in house
# T2 sequence (P42330 1-323): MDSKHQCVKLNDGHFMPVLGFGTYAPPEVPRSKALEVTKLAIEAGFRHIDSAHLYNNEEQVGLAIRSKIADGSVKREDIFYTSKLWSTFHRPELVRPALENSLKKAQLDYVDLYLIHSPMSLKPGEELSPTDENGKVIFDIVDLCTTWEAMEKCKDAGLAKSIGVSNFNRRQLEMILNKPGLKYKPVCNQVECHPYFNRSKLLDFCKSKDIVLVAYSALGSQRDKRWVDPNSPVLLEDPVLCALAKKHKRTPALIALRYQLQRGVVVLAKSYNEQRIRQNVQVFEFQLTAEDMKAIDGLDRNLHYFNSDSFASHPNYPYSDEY
# Assay: Test on PGF synthase (spectrophotometric, 340 nm, maximum reaction rate)
# Type: biochemical
# Conditions: IC50fs; 37° C., pH 6.5; read-out: Inhibition of PGFS IC50
# Method: as §1
# as §2, with “0.950 mL” for “0.965 ml”, “0.05 mL” for “0.035 ml”, “a reduction” for “an increase”
row,SMILES,IC50
1,O=C(COc1cccc(Cl)c1)NCc1ccco1 [Compound 23],> 50 µM

# Same assay, conditions: compound at 50 μM; read-out: Inhibition of PGFS % inhibition at 50 μM
row,SMILES,inhibition at 50 µM
1,O=C(COC1CCCCC1)NCc1ccccc1 [Compound 21],24%
2,O=C(COc1cccc(Cl)c1)NCc1ccco1 [Compound 23],25%
3,O=C(COc1ccccc1)NCc1ccccc1 [Compound 24],4%
